pIC50: −log10 of the molar value. Where no end group is shown, it is not given here.

One experiment concerns GST-BIR3 fusion protein. In words: FMAT Smac peptide / GST-BIR3 competition assay. As to conditions: competing GST-BIR3 off the FMAT beads; read-out: IC50 for non-biotinylated Smac (FMAT). The experiment is classed as binding. How it is done: In order to measure the ability of the inventive compounds to bind the BIR3 peptide binding pocket, a solution phase assay on the FMAT or ELISA technology platform is utilized.
Biotinylated Smac 7-mer peptide (AVPIAQK, lysine ε-amino group is biotinylated) is immobilized on streptavidin coated beads. GST-BIR3 fusion protein is precipitated with FMAT beads and is detected using fluorescent tagged anti-GST antibodies. […] The IC50 for non-biotinylated Smac is 400 nM.
As a reminder, the pIC50 is the negative decadic logarithm of the IC50, by convention in mol/L. Turning to AVPIAQK [non-biotinylated Smac], the pIC50 is 6.40.

In a further experiment the target is T1, XIAP (Homo sapiens, UniProt P98170).
T1 construct: GST
T1 sequence (P98170 248-358 limits assumed, species assumed): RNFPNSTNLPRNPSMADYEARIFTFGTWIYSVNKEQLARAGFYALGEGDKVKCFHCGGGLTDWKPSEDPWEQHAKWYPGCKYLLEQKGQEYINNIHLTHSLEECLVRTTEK
In words: Disruption of the Smac peptide-(XIAP)BIR3 protein-protein interaction (Tables 2 and 3). The format is binding. Conditions: Series B compounds, Table 3; read-out: XIXP IC50. The gist of the method:
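Compounds compete with immobilized Smac peptide for the XIAP BIR3 pocket. Percent inhibition at 4 concentrations (usually 3- or 10-fold series from 10 μM); IC50 by logarithmic regression, normalized to an average reference-inhibitor IC50.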
For the compound `CN[C@@H](C)C(=O)N[C@H](C(=O)N1CCN(Cc2ccccc2)C[C@H]1C(=O)NC(c1ccccc1)c1ccccc1)C(C)C` [Compound 64, (S)-4-Benzyl-1-[(S)-3-methyl-2-((S)-2-methylamino-propionylamino)-butyryl]-piperazine-2-carboxylic acid benzhydryl-amide], the pIC50 is above 5.00. The same measure, in the same setting: as for `CN[C@@H](C)C(=O)N[C@H](C(=O)N1CCN(Cc2ccccc2)C[C@H]1C(=O)NCc1ccccc1)C(C)C` [Compound 65, (S)-4-Benzyl-1-[(S)-3-methyl-2-((S)-2-methylamino-propionylamino)-butyryl]-piperazine-2-carboxylic acid benzylamide], the figure is above 5.00; as for `CN[C@@H](C)C(=O)N[C@H](C(=O)N1CCN(Cc2ccccc2)C[C@H]1C(=O)NCCc1cccnc1)C(C)C` [Compound 66, (S)-4-Benzyl-1-[(S)-3-methyl-2-((S)-2-methylamino-propionylamino)-butyryl]-piperazine-2-carboxylic acid (2-pyridin-3-yl-ethyl)-amide], below 5.00. Same read-out and setting: as for `CN[C@@H](C)C(=O)N[C@H](C(=O)N1CCN(Cc2ccccc2)C[C@H]1C(=O)NCCc1ccccc1F)C(C)C` [Compound 67, (S)-4-Benzyl-1-[(S)-3-methyl-2-((S)-2-methylamino-propionylamino)-butyryl]-piperazine-2-carboxylic acid [2-(2-fluoro-phenyl)-ethyl]-amide], the figure is above 5.00; as for `CN[C@@H](C)C(=O)N[C@H](C(=O)N1CCN(Cc2ccccc2)C[C@H]1C(=O)NC1CCc2ccccc2C1)C(C)C` (stereo partly drawn) [Compound 68, (S)-4-Benzyl-1-[(S)-3-methyl-2-((S)-2-methylamino-propionylamino)-butyryl]-piperazine-2-carboxylic acid (1,2,3,4-tetrahydro-naphthalen-2-yl)-amide], above 5.00. Same read-out and setting: for `CN[C@@H](C)C(=O)N[C@H](C(=O)N1CCN(Cc2ccccc2)C[C@H]1C(=O)NCCc1ccncc1)C(C)C` [Compound 69, (S)-4-Benzyl-1-[(S)-3-methyl-2-((S)-2-methylamino-propionylamino)-butyryl]-piperazine-2-carboxylic acid (2-pyridin-4-yl-ethyl)-amide] the value was below 5.00; for `CN[C@@H](C)C(=O)N[C@H](C(=O)N1CCN(Cc2ccccc2)C[C@H]1C(=O)NCc1ccc(F)cc1)C(C)C` [Compound 70, (S)-4-Benzyl-1-[(S)-3-methyl-2-((S)-2-methylamino-propionylamino)-butyryl]-piperazine-2-carboxylic acid 4-fluoro-benzylamide], above 5.00; for `CN[C@@H](C)C(=O)N[C@H](C(=O)N1CCN(Cc2ccccc2)C[C@H]1C(=O)NCCc1ccc(F)cc1)C(C)C` [Compound 71, (S)-4-Benzyl-1-[(S)-3-methyl-2-((S)-2-methylamino-propionylamino)-butyryl]-piperazine-2-carboxylic acid [2-(4-fluoro-phenyl)-ethyl]-amide], above 5.00.

Regarding `CN[C@@H](C)C(=O)N[C@H](C(=O)N1CCN(Cc2ccccc2)C[C@H]1C(=O)NCCCc1ccccc1)C(C)C` [Compound 72, (S)-4-Benzyl-1-[(S)-3-methyl-2-((S)-2-methylamino-propionylamino)-butyryl]-piperazine-2-carboxylic acid (3-phenyl-propyl)-amide], the pIC50 is below 5.00. Same read-out and setting: as for `CN[C@@H](C)C(=O)N[C@H](C(=O)N1CCN(Cc2ccccc2)C[C@H]1C(=O)NCc1nccs1)C(C)C` [Compound 73, (S)-4-Benzyl-1-[(S)-3-methyl-2-((S)-2-methylamino-propionylamino)-butyryl]-piperazine-2-carboxylic acid (thiazol-2-ylmethyl)-amide], the figure is below 5.00.

For `CN[C@@H](C)C(=O)N[C@H](C(=O)N1CCN(Cc2ccccc2)C[C@H]1C(=O)NC1CCc2ccccc2C1)C(C)C` (stereo partly drawn) [Compound 74, (S)-4-Benzyl-1-[(S)-3-methyl-2-((S)-2-methylamino-propionylamino)-butyryl]-piperazine-2-carboxylic acid (1,2,3,4-tetrahydro-naphthalen-2-yl)-amide], the pIC50 was above 5.00. On the same count and under the same terms, as for `CN[C@@H](C)C(=O)N[C@H](C(=O)N1CCN(Cc2ccccc2)C[C@H]1C(=O)NC1c2ccccc2-c2ccccc21)C(C)C` [Compound 75, (S)-4-Benzyl-1-[(S)-3-methyl-2-((S)-2-methylamino-propionylamino)-butyryl]-piperazine-2-carboxylic acid (9H-fluoren-9-yl)-amide], the figure is above 5.00; as for `CCN(C(=O)[C@@H]1CN(Cc2ccccc2)CCN1C(=O)[C@@H](NC(=O)[C@H](C)NC)C(C)C)C1CCCc2ccccc21` (stereo partly drawn) [Compound 76, (S)-4-Benzyl-1-[(S)-3-methyl-2-((S)-2-methylamino-propionylamino)-butyrl]-piperazine-2-carboxylic acid ethyl-(1,2,3,4-tetrahydro-naphthalen-1-yl)-amide], above 5.00; as for `CN[C@@H](C)C(=O)N[C@H](C(=O)N1CCN(Cc2ccccc2)C[C@H]1C(=O)NCC1CCCCCC1)C(C)C` [Compound 77, (S)-4-Benzyl-1-[(S)-3-methyl-2-((S)-2-methylamino-propionylamino)-butyryl]-piperazine-2-carboxylic acid cycloheptylmethyl-amide], below 5.00. On the same count and under the same terms, for `CN[C@@H](C)C(=O)N[C@H](C(=O)N1CCN(Cc2ccccc2)C[C@H]1C(=O)NC1Cc2ccccc2C1)C(C)C` [Compound 78, (S)-4-Benzyl-1-[(S)-3-methyl-2-((S)-2-methylamino-propionylamino)-butyryl]-piperazine-2-carboxylic acid indan-2-ylamide] the value was above 5.00; for `CN[C@@H](C)C(=O)N[C@H](C(=O)N1CCN(Cc2ccccc2)C[C@H]1C(=O)NCC1CCCCC1)C(C)C` [Compound 79, (S)-4-Benzyl-1-[(S)-3-methyl-2-((S)-2-methylamino-propionylamino)-butyryl]-piperazine-2-carboxylic acid cyclohexylmethyl-amide], above 5.00; for `CN[C@@H](C)C(=O)N[C@H](C(=O)N1CCN(Cc2ccccc2)C[C@H]1C(=O)NC(Cc1ccccc1)Cc1ccccc1)C(C)C` [Compound 80, (S)-4-Benzyl-1-[(S)-3-methyl-2-((S)-2-methylamino-propionylamino)-butyryl]-piperazine-2-carboxylic acid (1-benzyl-2-phenyl-ethyl)-amide], above 5.00. As to `CN[C@@H](C)C(=O)N[C@H](C(=O)N1CCN(Cc2ccccc2)C[C@H]1C(=O)NCC1CCCC1)C(C)C` [Compound 81, (S)-4-Benzyl-1-[(S)-3-methyl-2-((S)-2-methylamino-propionylamino)-butyryl]-piperazine-2-carboxylic acid cyclopentylmethyl-amide], the pIC50 is above 5.00. Same read-out and setting: for `CN[C@@H](C)C(=O)N[C@H](C(=O)N1CCN(Cc2ccccc2)C[C@H]1C(=O)NCc1ccco1)C(C)C` [Compound 82, (S)-4-Benzyl-1-[(S)-3-methyl-2-((S)-2-methylamino-propionylamino)-butyryl]-piperazine-2-carboxylic acid (furan-2-ylmethyl)-amide] the value was above 5.00; for `CN[C@@H](C)C(=O)N[C@H](C(=O)N1CCN(Cc2ccccc2)C[C@H]1C(=O)NCCC(C)C)C(C)C` [Compound 83, (S)-4-Benzyl-1-[(S)-3-methyl-2-((S)-2-methylamino-propionylamino)-butyryl]-piperazine-2-carboxylic acid (3-methyl-butyl)-amide], below 5.00; for `CN[C@@H](C)C(=O)N[C@H](C(=O)N1CCN(Cc2ccccc2)C[C@H]1C(=O)NCc1cc(F)cc(F)c1)C(C)C` [Compound 84, (S)-4-Benzyl-1-[(S)-3-methyl-2-((S)-2-methylamino-propionylamino)-butyryl]-piperazine-2-carboxylic acid 3,5-difluoro-benzylamide], above 5.00.

On to `CN[C@@H](C)C(=O)N[C@H](C(=O)N1CCN(Cc2ccccc2)C[C@H]1C(=O)N1Cc2ccccc2C1)C(C)C` [Compound 85, (S)-N-{(S)-1-[(S)-4-Benzyl-2-(1,3-dihydro-isoindole-2-carbonyl)-piperazine-1-carbonyl]-2-methyl-propyl}-2-methylamino-propionamide], for which the pIC50 is above 5.00. The same measure, in the same setting: for `CN[C@@H](C)C(=O)N[C@H](C(=O)N1CCN(Cc2ccccc2)C[C@H]1C(=O)N1CCc2ccccc2C1)C(C)C` [Compound 86, (S)-N-{(S)-1-[(S)-4-Benzyl-2-(3,4-dihydro-1H-isoquinoline-2-carbonyl)-piperazine-1-carbonyl]-2-methyl-propyl}-2-methylamino-propionamide] the value was above 5.00; for `CN[C@@H](C)C(=O)N[C@H](C(=O)N1CCN(Cc2ccccc2)C[C@H]1C(=O)N[C@H](C)c1ccccc1)C(C)C` [Compound 87, (S)-4-Benzyl-1-[(S)-3-methyl-2-((S)-2-methylamino-propionylamino)-butyryl]-piperazine-2-carboxylic acid ((R)-1-phenyl-ethyl)-amide], above 5.00.

The values are drawn from patent US7932255B2, “2-aminocarbonyl substituted piperazine or diaza-cyclic compounds as apoptosis protein inhibitors (lap) modulators” (Novartis AG, priority 2006, dated 2011).
